Earlier results in patent US20030203047A1 (priority 2002, published 2003).
Like-named read-outs stand apart in the source and are kept apart here.

Legend:
[1] = supplementation
[2] = supplementation; remark: listed apart in the source
young female rats = conditions: constant infusion
aromatase = molecular target: T1, aromatase (Homo sapiens, UniProt P11511); conditions: compared with chrysin, AG and ANG
T1 sequence (P11511 1-503): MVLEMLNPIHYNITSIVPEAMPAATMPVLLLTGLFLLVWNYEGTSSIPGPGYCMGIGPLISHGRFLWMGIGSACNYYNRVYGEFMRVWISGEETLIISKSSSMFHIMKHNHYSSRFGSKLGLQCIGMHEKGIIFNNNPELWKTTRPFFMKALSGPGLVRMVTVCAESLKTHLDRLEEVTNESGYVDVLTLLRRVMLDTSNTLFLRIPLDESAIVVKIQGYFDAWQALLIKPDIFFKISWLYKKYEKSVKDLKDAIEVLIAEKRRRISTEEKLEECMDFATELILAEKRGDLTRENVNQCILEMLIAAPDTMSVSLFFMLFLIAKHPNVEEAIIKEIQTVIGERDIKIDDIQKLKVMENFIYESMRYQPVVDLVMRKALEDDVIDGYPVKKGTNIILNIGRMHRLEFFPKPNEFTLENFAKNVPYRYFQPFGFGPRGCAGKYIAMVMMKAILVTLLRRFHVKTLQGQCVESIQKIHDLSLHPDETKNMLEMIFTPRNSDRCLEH

[3] = for plasma testosterone: panhypopituitarism
androgen receptor = conditions: seminal vesicle; relative to the unreduced steroid
hypogonadal men = conditions: for waking erection: Asian group of hypogonadal men; for sexual interest and activity, spontaneous erection: Caucasian group of hypogonadal men
[4] = system: prostate and seminal vesicle weights; levator ani muscles
healthy young men = conditions: 300 mg/wk for six weeks
HIV-infected men = conditions: pharmacological doses
[5] = in vivo
patients on dialysis = conditions: compared with placebo

C[C@]12CC[C@H]3[C@@H](CCC4=C[C@@H](O)CC[C@@]43C)[C@@H]1CC[C@@H]2O [4-androstenediol]
urine testosterone concentration relative to 4-androstenedione [1]: 10 fold | serum testosterone [2]: elevations

C[C@]12CCC(=O)C=C1CC[C@@H]1[C@@H]2CC[C@]2(C)C(=O)CC[C@@H]12 [4-androstenedione]
serum testosterone [2]: elevations

C[C@]12CC[C@H]3[C@@H](CC=C4C[C@@H](O)CC[C@@]43C)[C@@H]1CC[C@@H]2O [5-androstenediol]
proportion of protein in the body composition (young female rats): increased

COc1ccc(-c2coc3cc(O)cc(O)c3c2=O)cc1 [Biochanin A, 5,7-dihydroxy-4′-methoxyisoflavone]
aromatase inhibition (in words) (aromatase): to a lesser degree

C[C@]12CC[C@H](O)CC1=CC[C@@H]1[C@@H]2CC[C@]2(C)C(=O)CC[C@@H]12 [DHEA, dehydro-epiandrosterone]
plasma testosterone ([3]; 50 mg dose): levels similar to those observed in young women | increase of plasma delta 4-androstenedione ([3]; 50 mg or 200 mg): significant and dose dependent | plasma estrogens, particularly estradiol ([3]; 50 mg or 200 mg): significant and dose dependent increase | plasma testosterone ([3]; 200 mg dose): slightly below the levels observed in normal men | increase of plasma dihydrotestosterone levels ([3]; both doses): small

C[C@]12CCC(=O)C[C@@H]1CC[C@@H]1[C@@H]2CC[C@]2(C)[C@@H](O)CC[C@@H]12 [DHT, 5α-androstan-17β-ol-3-one]
change of affinity to the androgen receptor on 5-alpha-reduction (androgen receptor): increasing by seven- to eight-fold

C[C@@H]1CC2=CC(=O)CC[C@@H]2[C@H]2CC[C@]3(C)[C@@H](O)CC[C@H]3[C@@H]21 [MENT, 7α-methyl-19-nor-testosterone]
waking erection (hypogonadal men): increased | sexual interest and activity, spontaneous erection (hypogonadal men): significant increases | androgenic potency relative to testosterone ([4]; measured by prostate and seminal vesicle weights): four- to five-times | anabolic potency relative to testosterone ([4]; measured in the levator ani muscles): ten-times

CCCCCCC(=O)O[C@H]1CC[C@H]2[C@@H]3CCC4=CC(=O)CC[C@]4(C)[C@H]3CC[C@]12C [TE, testosterone enanthate]
waking erection (hypogonadal men): increased | sexual interest and activity, spontaneous erection (hypogonadal men): significant increases | circumferences with significant increases (of fifteen) (healthy young men): shoulders

C[C@]12CC[C@H]3[C@@H](CCC4=CC(=O)CC[C@@]43C)[C@@H]1CC[C@@H]2O [Testosterone]
proportion of protein in the body composition (young female rats): increased

CCCCCCCCCC(=O)O[C@H]1CC[C@H]2[C@@H]3CCC4=CC(=O)CC[C@@H]4[C@H]3CC[C@]12C [nandrolone decanoate]
circumferences with significant increases (of fifteen) (healthy young men): shoulders and chest | total weight, lean body mass, body cell mass, muscle size and strength (HIV-infected men): significant gains

C[C@]12CC[C@H]3[C@@H](CCC4=CC(=O)CC[C@@H]43)[C@@H]1CC[C@@H]2O [nandrolone, 19-nor-testosterone]
adverse finding associated with use [5]: azoospermia | decrease in HDL-cholesterol [5]: 25-27% | energy expenditure (young female rats): increased | lean body mass (patients on dialysis): increased significantly
